Data: ChEMBL document CHEMBL1201862, “PubChem BioAssay data set” (2004)
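Test compounds were applied to cells in 96-well plates for 48 hours at 5 doses. Here, GI50 denotes the concentration required for 50% inhibition of growth.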 Calls of active or inactive are those of the source. No stated cut-off is given here; in the data, active = GI50 up to about 1.1 µM and inactive = higher.

Key:
Test in all cases: DTP human tumour cell line panel, 48 h
KM-20L2 = tested on: KM-20L2
XF498 = tested on: XF498
DMS-273 = tested on: DMS-273
DMS-114 = tested on: DMS-114
M19-MEL = tested on: M19-MEL
DLD-1 = tested on: DLD-1
RXF 631 = tested on: RXF 631
MCF7 = tested on: MCF7
BT-549 = tested on: BT-549

In the case of `CC1=C(C(=O)Nc2ccc([N+](=O)[O-])cc2)C(c2ccccc2O)C(C(=O)Nc2ccc([N+](=O)[O-])cc2)=C(C)N1`, the GI50 (KM-20L2) is reported as 14.5 µM (inactive), the GI50 (XF498) is reported as 13.6 µM (inactive) and the GI50 (DMS-273) is reported as 23.3 µM (inactive). The GI50 (DMS-114) was 15.3 µM (inactive), the GI50 (M19-MEL) was 20.5 µM (inactive) and the GI50 (DLD-1) was 18.5 µM (inactive). The GI50 (RXF 631) was 15.4 µM (inactive).

`Cc1ccc(Nc2nc(C)c(C(/C=C/c3ccc(/C=C/C(=N/NC(=O)C[n+]4ccccc4)c4sc(Nc5ccc(C)cc5[N+](=O)[O-])nc4C)cc3)=N\NC(=O)C[n+]3ccccc3)s2)c([N+](=O)[O-])c1` was tested, and the GI50 (KM-20L2) was > 100 µM (inactive), the GI50 (DMS-273) was > 100 µM (inactive) and the GI50 (DMS-114) was 92.9 µM (inactive). The GI50 (M19-MEL) was > 100 µM (inactive), the GI50 (DLD-1) was 71.3 µM (inactive) and the GI50 (RXF 631) was > 100 µM (inactive).

With `CC(C)(C)c1nc2c(o1)/C(=N\c1ccccc1)c1ccccc1C2=O` the GI50 (KM-20L2) was 27.8 µM (inactive), the GI50 (XF498) was 3.68 µM (inactive) and the GI50 (DMS-273) was 3.71 µM (inactive). The GI50 (M19-MEL) was 0.718 µM (active), the GI50 (DLD-1) was 4.14 µM (inactive) and the GI50 (RXF 631) was 22.5 µM (inactive).

With `NNC(=O)N/N=C1\CN(c2ccc(Cl)cc2Cl)C(=O)C(=O)C1c1nc2ccccc2o1` (stereo not given) the GI50 (KM-20L2) was > 100 µM (inactive), the GI50 (XF498) was > 100 µM (inactive) and the GI50 (DMS-273) was > 100 µM (inactive). For the same molecule, the GI50 (DMS-114) was > 100 µM (inactive), the GI50 (M19-MEL) was > 100 µM (inactive) and the GI50 (DLD-1) was > 100 µM (inactive). For the same molecule, the GI50 (RXF 631) was > 100 µM (inactive).

For `COc1cc(C2=NN(C)C(c3ccc([N+](=O)[O-])o3)C2)cc(OC)c1OC` (stereo not given), the GI50 (KM-20L2) was > 100 µM (inactive), the GI50 (DMS-273) was > 100 µM (inactive) and the GI50 (DMS-114) was 35.6 µM (inactive). For the same molecule, the GI50 (M19-MEL) was 29.8 µM (inactive), the GI50 (DLD-1) was 48.4 µM (inactive) and the GI50 (RXF 631) was 51.5 µM (inactive).

In the case of `O=C(c1ccccc1)N1C2CCC1C(C(F)(F)F)=C2C(F)(F)F`, the GI50 (KM-20L2) is reported as > 100 µM (inactive), the GI50 (DMS-273) is reported as > 100 µM (inactive) and the GI50 (DMS-114) is reported as > 100 µM (inactive). For the same molecule, the GI50 (M19-MEL) was > 100 µM (inactive), the GI50 (DLD-1) was > 100 µM (inactive) and the GI50 (RXF 631) was > 100 µM (inactive).

With `CS(=O)(=O)OCCn1cnc2nc(NC(=O)c3ccccc3)[nH]c(=O)c21` the GI50 (KM-20L2) was > 100 µM (inactive), the GI50 (DMS-273) was > 100 µM (inactive) and the GI50 (DMS-114) was > 100 µM (inactive). The GI50 (M19-MEL) was > 100 µM (inactive), the GI50 (DLD-1) was > 100 µM (inactive) and the GI50 (RXF 631) was > 100 µM (inactive).

For `CCOC(=O)C1C(=O)c2ccccc2CN1Cc1ccccc1` (stereo not given), the GI50 (KM-20L2) was > 100 µM (inactive), the GI50 (XF498) was > 100 µM (inactive) and the GI50 (DMS-273) was > 100 µM (inactive). For the same molecule, the GI50 (DMS-114) was > 100 µM (inactive), the GI50 (M19-MEL) was > 100 µM (inactive) and the GI50 (DLD-1) was > 100 µM (inactive). For the same molecule, the GI50 (RXF 631) was > 100 µM (inactive).

With `CCOC(=O)C(=O)Nc1cc(Cl)c(Cl)cc1Cl` the GI50 (KM-20L2) was > 100 µM (inactive), the GI50 (DMS-273) was > 100 µM (inactive) and the GI50 (DMS-114) was > 100 µM (inactive). The GI50 (M19-MEL) was > 100 µM (inactive) and the GI50 (RXF 631) was > 100 µM (inactive).

`O=[N+]([O-])c1ccc(Cl)c(C2CC(c3cccc4ccccc34)=Nc3ccccc3[S+]2[O-])c1` (stereo not given) was tested, and the GI50 (KM-20L2) was 20.2 µM (inactive), the GI50 (DMS-273) was 19.2 µM (inactive) and the GI50 (DMS-114) was 14.9 µM (inactive). The GI50 (M19-MEL) was 20.6 µM (inactive), the GI50 (DLD-1) was 9.55 µM (inactive) and the GI50 (RXF 631) was 29.4 µM (inactive).

For `COc1cc(C(=O)N2CCc3c([nH]c4c([N+](=O)[O-])c(OC)ccc34)C2C)cc(OC)c1OC` (stereo not given), the GI50 (KM-20L2) was > 100 µM (inactive), the GI50 (DMS-273) was > 100 µM (inactive) and the GI50 (DMS-114) was > 100 µM (inactive). For the same molecule, the GI50 (DLD-1) was > 100 µM (inactive) and the GI50 (RXF 631) was 79.6 µM (inactive).

With `Oc1cc(-c2cccs2)nc2cc3c(cc12)OCO3` the GI50 (KM-20L2) was 15.9 µM (inactive), the GI50 (XF498) was 3.54 µM (inactive) and the GI50 (DMS-273) was 3.34 µM (inactive). The GI50 (DMS-114) was 3.93 µM (inactive), the GI50 (M19-MEL) was 3.34 µM (inactive) and the GI50 (DLD-1) was 5.13 µM (inactive). The GI50 (RXF 631) was 28.2 µM (inactive).

`CCCCCCCCSC(=O)NCCCC` was tested, and the GI50 (KM-20L2) was 23.7 µM (inactive), the GI50 (XF498) was 21.4 µM (inactive) and the GI50 (DMS-273) was 35 µM (inactive). The GI50 (M19-MEL) was 42.1 µM (inactive), the GI50 (DLD-1) was 35.8 µM (inactive) and the GI50 (RXF 631) was 39.4 µM (inactive).

For `CCOCc1cc(=O)c2cc3c(cc2o1)OC(C)(C)CC3`, the GI50 (KM-20L2) was > 100 µM (inactive), the GI50 (XF498) was > 100 µM (inactive) and the GI50 (DMS-273) was 48.5 µM (inactive). For the same molecule, the GI50 (DMS-114) was 62.7 µM (inactive), the GI50 (M19-MEL) was > 100 µM (inactive) and the GI50 (DLD-1) was > 100 µM (inactive). For the same molecule, the GI50 (RXF 631) was > 100 µM (inactive).

`CC1=C(C(=O)Nc2ccc(C)cc2)C(c2cccc([N+](=O)[O-])c2)C(C(=O)Nc2ccc(C)cc2)=C(C)N1` was tested, and the GI50 (KM-20L2) was 19.4 µM (inactive), the GI50 (XF498) was 17.8 µM (inactive) and the GI50 (DMS-273) was 28.6 µM (inactive). For the same molecule, the GI50 (DMS-114) was 22.5 µM (inactive), the GI50 (M19-MEL) was 20.8 µM (inactive) and the GI50 (DLD-1) was 31.6 µM (inactive). The GI50 (RXF 631) was 17.2 µM (inactive).

`NC(=O)C(=O)CC(=O)c1ccccc1NC1=CC(=O)C(=O)c2ccccc21` was tested, and the GI50 (KM-20L2) was > 100 µM (inactive), the GI50 (XF498) was > 100 µM (inactive) and the GI50 (DMS-273) was 53.1 µM (inactive). The GI50 (DMS-114) was 16.7 µM (inactive), the GI50 (M19-MEL) was 7.74 µM (inactive) and the GI50 (DLD-1) was 42.3 µM (inactive). For the same molecule, the GI50 (RXF 631) was > 100 µM (inactive).

With `O=C(CCl)Nc1ccc(C(=O)N/N=C/c2ccc(Cl)cc2)cc1` the GI50 (MCF7) was 5.09 µM (inactive), the GI50 (BT-549) was 1.88 µM (inactive) and the GI50 (KM-20L2) was 11.9 µM (inactive). The GI50 (XF498) was 1.19 µM (inactive), the GI50 (DMS-273) was 2 µM (inactive) and the GI50 (DMS-114) was 1.45 µM (inactive). For the same molecule, the GI50 (M19-MEL) was 12.8 µM (inactive) and the GI50 (DLD-1) was 2.18 µM (inactive).

`COc1ccc(OC)c(NC(=O)CCC/C(CC(=O)c2ccc(O)c(OC)c2)=N\Nc2nnc(C)n2N)c1` was tested, and the GI50 (KM-20L2) was > 100 µM (inactive), the GI50 (XF498) was > 100 µM (inactive) and the GI50 (DMS-273) was > 100 µM (inactive). For the same molecule, the GI50 (DMS-114) was 95.7 µM (inactive), the GI50 (M19-MEL) was > 100 µM (inactive) and the GI50 (DLD-1) was > 100 µM (inactive).

With `O=C(O)/C(Cl)=C(\Cl)C(=O)Nc1ccccc1` the GI50 (KM-20L2) was > 100 µM (inactive), the GI50 (DMS-273) was > 100 µM (inactive) and the GI50 (M19-MEL) was > 100 µM (inactive). The GI50 (DLD-1) was > 100 µM (inactive) and the GI50 (RXF 631) was > 100 µM (inactive).
